pIC50: −log10 of the molar value.
Tested on: SK-MEL-28 cells
Assay: Inhibitory effect of cancer cell proliferation, MTT
Type: cell-based
Settings: Homo sapiens, SK-MEL-28, 72 h, read-out: SK-MEL-28 0.75 mM glucose Cell viability (IC50 μM)
Description: The compounds prepared in the above Examples were evaluated for the inhibitory effect of cancer cell proliferation according to the method described in the following Test Example.
SK-MEL-28 cells derived from human melanoma were used, and the concentration (cell growth inhibitory concentration, IC50) at which cell growth was inhibited to 50% was measured using MTT reagent (3-(4,5-dimethylthiazole-2-yl)-2,5-[…] bromide) to confirm the inhibitory effect of cancer cell proliferation of the drugs synthesized in Examples 1 to 84.
First, SK-MEL-28 cells were cultured in 96-well plates at a cell number of about 1,250 in RPMI-1640 medium containing 11.1 mM glucose and 10% calf blood serum or 0.75 mM glucose and 10% calf blood serum, and were cultured for 16 hours. […] After treatment of the compound, MTT was added to the culture medium to confirm living cells and further cultured for 2 hours. The resulting formazane crystal was dissolved using dimethyl sulfoxide, and the absorbance of the solution was measured at 555 nm. After culturing for 72 hours, the number of viable cells in the well plate treated with the compounds synthesized in the Examples relative to the number of cells cultured in the well plate without treatment of the compounds was expressed as cell viability (%) according to each treatment concentration. By using this, a cell viability curve graph was prepared, and the inhibitory effect of cancer cell proliferation was confirmed by calculating the concentration of the compound whose growth was inhibited to 50% (IC50).

First: Nc1cc[n+](CCc2ccccc2)cc1 [Example 1, 4-Amino-1-phenethylpyridinium chloride]
Second: Nc1cc[n+](CCC2CCCCC2)cc1 [Example 27, 4-Amino-1-(2-cyclohexylethyl)pyridinium bromide]
The IC50 of the first is 11-fold higher: 17.9 µM for the first, 1.7 µM for the second.

Nc1cc[n+](Cc2ccc[se]2)cn1 [Example 74, 4-Amino-1-(selenophen-2-ylmethyl)pyrimidin-1-ium chloride] showed an IC50 of 74.4 µM.

Same assay, conditions: Homo sapiens, SK-MEL-28, 72 h, read-out: SK-MEL-28 11.1 mM glucose Cell viability (IC50 μM)

First: Nc1cc[n+](CCc2ccccc2)cc1 [Example 1, 4-Amino-1-phenethylpyridinium chloride]
Second: Nc1cc[n+](CCC2CCCCC2)cc1 [Example 27, 4-Amino-1-(2-cyclohexylethyl)pyridinium bromide]
The IC50 of the first is 8.4-fold higher: 163 µM for the first, 19.5 µM for the second. The second is the more potent here.

Work on Nc1cc[n+](Cc2ccc[se]2)cn1 [Example 74, 4-Amino-1-(selenophen-2-ylmethyl)pyrimidin-1-ium chloride] yielded an IC50 of 243 µM.

Same assay, conditions: Homo sapiens, SK-MEL-28; 0.75 mM glucose, 72 hours, MTT; read-out: SK-MEL-28 0.75 mM glucose Cell viability (IC50 μM)

Going from Nc1cc[n+](CCc2ccccc2)c(Br)c1 [Example 7, 4-Amino-2-bromo-1-phenethylpyridinium chloride] to Nc1cc[n+](CCc2ccccc2)c(N)c1 [Example 8, 2,4-Diamino-1-phenethylpyridinium bromide], the IC50 falls from 20.7 µM to 4.7 µM (4.4-fold).

Nc1cc[n+](CCc2ccccc2Cl)cc1 [Example 11, 4-Amino-1-(2-chlorophenethyl)pyridinium chloride] and Nc1cc[n+](CCc2ccccc2Cl)c(N)c1 [Example 12, 2,4-Diamino-1-(2-chlorophenethyl)pyridinium bromide] are within 1.5-fold of each other in IC50: 11.9 µM for the first, 12.8 µM for the second.

c1ccc(CC[n+]2ccsc2)cc1 [Example 13, 3-Phenethylthiazol-3-ium iodide] and Nc1scc[n+]1CCc1ccccc1 [Example 14, 2-Amino-3-phenethylthiazol-3-ium iodide] are within 1.5-fold of each other in IC50: 129 µM for the first, 154 µM for the second.

Compared with Nc1cc[n+](CCc2ccccc2)c(C2CC2)c1 [Example 15, 4-amino-2-cyclopropyl-1-phenethylpyridinium iodide], Nc1cc[n+](CCc2ccccc2)c(F)c1 [Example 18, 4-amino-2-fluoro-1-phenethylpyridinium chloride] is 1.6-fold higher in IC50: 6.8 µM for the first, 10.7 µM for the second. The first is the more potent here.

Nc1cc[n+](CCc2ccccc2)c2ccccc12 [Example 16, 4-Amino-1-phenethylquinolinium iodide] and Nc1cc[n+](CCCc2ccccc2)cc1 [Example 23, 4-Amino-1-(3-phenylpropyl)pyridinium chloride] are within 1.5-fold of each other in IC50: 8 µM for the first, 5.4 µM for the second.

Compared with CN(C)c1cc[n+](CCc2ccccc2)cc1 [Example 17, 4-(Dimethylamino)-1-phenethylpyridinium chloride], Nc1cc[n+](Cc2ccccc2)cc1 [Example 20, 4-Amino-1-benzylpyridinium chloride] is 2.1-fold higher in IC50: 6.9 µM for the first, 14.7 µM for the second. The first is the more potent here.

Compared with Nc1cc[n+](CCc2ccc(Cl)c(Cl)c2)cc1 [Example 19, 4-Amino-1-(3,4-dichlorophenethyl)pyridinium chloride], Nc1cc[n+](Cc2ccccc2)c(F)c1 [Example 21, 4-Amino-1-benzyl-2-fluoropyridinium chloride] is 2.1-fold higher in IC50: 5.9 µM for the first, 12.5 µM for the second. The first is the more potent here.

Compound c1ccc(CC[n+]2cccc3c2CCCC3)cc1 [Example 22, 1-Phenethyl-5,6,7,8-tetrahydroquinolinium chloride] has an IC50 of 18.5 µM.

Same assay, conditions: Homo sapiens, SK-MEL-28; 11.1 mM glucose, 72 hours, MTT; read-out: SK-MEL-28 11.1 mM glucose Cell viability (IC50 μM)

Compared with Nc1cc[n+](CCc2ccccc2)c(Br)c1 [Example 7, 4-Amino-2-bromo-1-phenethylpyridinium chloride], Nc1cc[n+](CCc2ccccc2)c(N)c1 [Example 8, 2,4-Diamino-1-phenethylpyridinium bromide] is 4.5-fold higher in IC50: 16.8 µM for the first, 75.1 µM for the second. The first is the more potent here.

Nc1cc[n+](CCc2ccccc2Cl)cc1 [Example 11, 4-Amino-1-(2-chlorophenethyl)pyridinium chloride] and Nc1cc[n+](CCc2ccccc2Cl)c(N)c1 [Example 12, 2,4-Diamino-1-(2-chlorophenethyl)pyridinium bromide] are within 1.5-fold of each other in IC50: 38.5 µM for the first, 55.5 µM for the second.

c1ccc(CC[n+]2ccsc2)cc1 [Example 13, 3-Phenethylthiazol-3-ium iodide] and Nc1scc[n+]1CCc1ccccc1 [Example 14, 2-Amino-3-phenethylthiazol-3-ium iodide] are within 1.5-fold of each other in IC50: 320 µM for the first, 277 µM for the second.

Going from Nc1cc[n+](CCc2ccccc2)c(C2CC2)c1 [Example 15, 4-amino-2-cyclopropyl-1-phenethylpyridinium iodide] to Nc1cc[n+](CCc2ccccc2)c(F)c1 [Example 18, 4-amino-2-fluoro-1-phenethylpyridinium chloride], the IC50 falls from 47 µM to 16.9 µM (2.8-fold). The second is the more potent here.

First: Nc1cc[n+](CCc2ccccc2)c2ccccc12 [Example 16, 4-Amino-1-phenethylquinolinium iodide]
Second: Nc1cc[n+](CCCc2ccccc2)cc1 [Example 23, 4-Amino-1-(3-phenylpropyl)pyridinium chloride]
The IC50 of the first is 1.8-fold lower: 28.2 µM for the first, 51.1 µM for the second.

Going from CN(C)c1cc[n+](CCc2ccccc2)cc1 [Example 17, 4-(Dimethylamino)-1-phenethylpyridinium chloride] to Nc1cc[n+](Cc2ccccc2)cc1 [Example 20, 4-Amino-1-benzylpyridinium chloride], the IC50 rises from 75.4 µM to 143 µM (1.9-fold).

Compared with Nc1cc[n+](CCc2ccc(Cl)c(Cl)c2)cc1 [Example 19, 4-Amino-1-(3,4-dichlorophenethyl)pyridinium chloride], Nc1cc[n+](Cc2ccccc2)c(F)c1 [Example 21, 4-Amino-1-benzyl-2-fluoropyridinium chloride] is 3.1-fold higher in IC50: 8.8 µM for the first, 27.4 µM for the second.

c1ccc(CC[n+]2cccc3c2CCCC3)cc1 [Example 22, 1-Phenethyl-5,6,7,8-tetrahydroquinolinium chloride] showed an IC50 of 193 µM.

Tested on: A549 cell lines (lung cancer cell lines)
Assay: Oxygen Consumption Rate (OCR) of cells, corrected for cell viability (Cyquant)
Type: cell-based
Settings: Homo sapiens, A549, 24 h, read-out: OCR IC50
Description: The compounds synthesized by the methods disclosed in the Examples of the present invention have been measured on oxygen consumption rate and extracellular oxidation by the methods disclosed in the Test Examples below.
3×10^3 cells from A549 cell lines (purchased from ATCC-American Type Culture Collection), which are lung cancer cell lines, were placed on XF96 cell culture plates using RPMI1640 medium, and cultured at 37° C. in a 5% CO2 condition for 16 hours or more for attachment.
After 16 hours, the cells were treated with the drug at six different concentrations between 0 μM and 20 μM. After 24 hours, the existing medium was removed, and XF assay medium (15 mM D-Glucose, 15 mM sodium pyruvate, 4 mM L-Glutamine, pH 7.4) was added. The cells were retreated with the drug, and additionally cultured in Prep station at 37° C. in a non-CO2 condition for 1 hour. During the one-hour culture in the Prep station, a sensor cartridge was placed and calibrated for 20 minutes, and a plate with cells was placed to analyze the OCR. After the analysis was completed, XF96 plate was measured for cell viability using Cyquant assay, which measures the amount of intracellular DNA, in the following method. XF assay medium and the drug were removed, and the cells were placed in a cryogenic refrigerator (−80° C.) for at least 4 hours to be frozen. After the plate was made to be at room temperature, a solution where a lysis buffer and fluorescent GR dye were mixed was placed by 200 μL per well. After 20-minute reaction at room temperature, […] was measured between […] to calculate cell viability. A measured value of a well untreated with the drug was converted to 100% by reflecting cell viability to the OCR value. Concentration of a drug which inhibits the OCR value reflecting cell viability by 50% was calculated.

First: Nc1cc[n+](CCc2ccccc2)cc1 [Example 1, 4-Amino-1-phenethylpyridinium chloride]
Second: Nc1cc[n+](CCC2CCCCC2)cc1 [Example 27, 4-Amino-1-(2-cyclohexylethyl)pyridinium bromide]
The pIC50 of the first is 0.44 log units lower: 5.96 for the first, 6.40 for the second. The second is the more potent here.

Same assay, conditions: Homo sapiens; A549 cells, 24 h drug treatment, OCR value reflecting cell viability; read-out: OCR IC50

Going from Nc1cc[n+](CCc2ccccc2)c(Br)c1 [Example 7, 4-Amino-2-bromo-1-phenethylpyridinium chloride] to Nc1cc[n+](CCc2ccccc2)c(N)c1 [Example 8, 2,4-Diamino-1-phenethylpyridinium bromide], the pIC50 falls from 6.40 to 5.92 (0.48 log units).

Nc1cc[n+](CCc2ccccc2Cl)cc1 [Example 11, 4-Amino-1-(2-chlorophenethyl)pyridinium chloride] and Nc1cc[n+](CCc2ccccc2Cl)c(N)c1 [Example 12, 2,4-Diamino-1-(2-chlorophenethyl)pyridinium bromide] are within 0.2 log units of each other in pIC50: 6.15 for the first, 6.10 for the second.

First: c1ccc(CC[n+]2ccsc2)cc1 [Example 13, 3-Phenethylthiazol-3-ium iodide]
Second: CN(C)c1cc[n+](CCc2ccccc2)cc1 [Example 17, 4-(Dimethylamino)-1-phenethylpyridinium chloride]
The pIC50 of the first is 0.60 log units lower: 4.78 for the first, 5.38 for the second. The second is the more potent here.

Compared with Nc1cc[n+](CCc2ccccc2)c(C2CC2)c1 [Example 15, 4-amino-2-cyclopropyl-1-phenethylpyridinium iodide], Nc1cc[n+](CCc2ccccc2)c(F)c1 [Example 18, 4-amino-2-fluoro-1-phenethylpyridinium chloride] is 0.58 log units higher in pIC50: 5.64 for the first, 6.22 for the second. The second is the more potent here.

First: Nc1cc[n+](CCc2ccccc2)c2ccccc12 [Example 16, 4-Amino-1-phenethylquinolinium iodide]
Second: Nc1cc[n+](CCCc2ccccc2)cc1 [Example 23, 4-Amino-1-(3-phenylpropyl)pyridinium chloride]
The pIC50 of the first is 0.23 log units lower: 5.82 for the first, 6.05 for the second. The second is the more potent here.

Compared with Nc1cc[n+](CCc2ccc(Cl)c(Cl)c2)cc1 [Example 19, 4-Amino-1-(3,4-dichlorophenethyl)pyridinium chloride], Nc1cc[n+](Cc2ccccc2)cc1 [Example 20, 4-Amino-1-benzylpyridinium chloride] is 0.56 log units lower in pIC50: 6.30 for the first, 5.74 for the second.

Going from Nc1cc[n+](Cc2ccccc2)c(F)c1 [Example 21, 4-Amino-1-benzyl-2-fluoropyridinium chloride] to c1ccc(CC[n+]2cccc3c2CCCC3)cc1 [Example 22, 1-Phenethyl-5,6,7,8-tetrahydroquinolinium chloride], the pIC50 falls from 6.05 to 5.10 (0.95 log units). The first is the more potent here.

From US20170305861A1, “HETEROARYL COMPOUNDS COMPRISING NITROGEN AND USE THEREOF” (ImmunoMet Therapeutics, Inc, priority 2016, published 2017)
